This note sets out measurements from patent US8685970B2, “Quinolines and related analogs as sirtuin modulators” (GlaxoSmithKline, LLC, priority 2008, dated 2014).

In the test the target is T1, SIRT1 (Homo sapiens, UniProt Q96EB6).
T1 sequence (Q96EB6 1-747): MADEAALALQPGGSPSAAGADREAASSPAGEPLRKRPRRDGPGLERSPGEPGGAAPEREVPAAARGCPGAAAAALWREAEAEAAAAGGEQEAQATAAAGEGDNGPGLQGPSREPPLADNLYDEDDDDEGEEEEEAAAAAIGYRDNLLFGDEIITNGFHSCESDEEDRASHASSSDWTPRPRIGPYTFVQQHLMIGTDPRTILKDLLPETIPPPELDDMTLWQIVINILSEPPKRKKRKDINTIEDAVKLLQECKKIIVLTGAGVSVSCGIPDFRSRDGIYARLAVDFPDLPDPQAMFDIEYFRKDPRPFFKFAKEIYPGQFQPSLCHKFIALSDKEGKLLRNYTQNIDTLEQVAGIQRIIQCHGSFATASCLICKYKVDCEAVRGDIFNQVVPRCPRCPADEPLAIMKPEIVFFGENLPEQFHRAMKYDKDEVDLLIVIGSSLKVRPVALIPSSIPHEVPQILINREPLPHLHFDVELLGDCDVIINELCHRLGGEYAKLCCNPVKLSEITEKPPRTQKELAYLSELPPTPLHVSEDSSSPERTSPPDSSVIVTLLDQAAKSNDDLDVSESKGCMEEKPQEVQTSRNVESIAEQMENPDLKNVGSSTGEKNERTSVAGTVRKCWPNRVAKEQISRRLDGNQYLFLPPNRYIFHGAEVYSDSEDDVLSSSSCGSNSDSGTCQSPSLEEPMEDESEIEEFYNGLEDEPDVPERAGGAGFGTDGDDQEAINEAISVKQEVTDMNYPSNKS
Briefly: Mass spectrometry based SIRT1 deacetylation assay (activation). The format is biochemical. The following applies: 10 nM SIRT1, 0.5 μM peptide substrate, 120 μM βNAD+, 25 min at 25° C. An excerpt: A mass spectrometry based assay was used to identify modulators of SIRT1 activity. The mass spectrometry based assay utilizes a peptide having 20 amino acid residues as follows: Ac-EE-K (biotin)-GQSTSSHSK (Ac)N1eSTEG-K(5TMR)-EE-NH2 (SEQ ID NO: 1) wherein K(Ac) is an acetylated lysine residue and Nle is a norleucine. The peptide is labeled with the fluorophore 5TMR (excitation 540 nm/emission 580 nm) at the C-terminus. The sequence of the peptide substrate is based on p53 with several modifications. In addition, the methionine residue naturally present in the sequence was replaced with the norleucine because the methionine may be susceptible to oxidation during synthesis and purification.
The mass spectrometry assay is conducted as follows: 0.5 μM peptide substrate and 120 μM βNAD^+ is incubated with 10 nM SIRT1 for 25 minutes at 25° C. in a reaction buffer (50 mM Tris-acetate pH 8, 137 mM NaCl, 2.7 mM KCl, 1 mM MgCl2, 5 mM DTT, 0.05% BSA). Test compounds may be added to the reaction as described above. The SirT1 gene is cloned into a T7-promoter containing vector and transformed into BL21(DE3). After the 25 minute incubation with SIRT1, 10 μL of 10% formic acid is added to stop the reaction. Reactions are sealed and frozen for later mass spec analysis. Determination of the mass of the substrate peptide allows for precise determination of the degree of acetylation (i.e. starting material) as compared to deacetylated peptide (product).
A control for inhibition of sirtuin activity is conducted by adding 1 μL of 500 mM nicotinamide as a negative control at the start of the reaction (e.g., permits determination of maximum sirtuin inhibition). A control for activation of sirtuin activity is conducted using 10 nM of sirtuin protein, with 1 μL of DMSO in place of compound, to determine the amount of deacetylation of the substrate at a given timepoint within the linear range of the assay. This timepoint is the same as that used for test compounds and, within the linear range, the endpoint represents a change in velocity.
For the above assay, SIRT1 protein was expressed and purified as follows. The SirT1 gene was cloned into a T7-promoter containing vector and transformed into BL21(DE3). The protein was expressed by induction with 1 mM IPTG as an N-terminal His-tag fusion protein at 18° C. overnight and harvested at 30,000×g. Cells were lysed with lysozyme in lysis buffer (50 mM Tris-HCl, 2 mM Tris[2-carboxyethyl]phosphine (TCEP), 10 μM ZnCl2, 200 mM NaCl) and further treated with sonication for 10 min for complete lysis. The protein was purified over a Ni-NTA column (Amersham) and fractions containing pure protein were pooled, concentrated and run over a sizing column (Sephadex S200 26/60 global). The peak containing soluble protein was collected and run on an Ion-exchange column (MonoQ). Gradient elution (200 mM-500 mM NaCl) yielded pure protein. This protein was concentrated and dialyzed against dialysis buffer (20 mM Tris-HCl, 2 mM TCEP) overnight. The protein was aliquoted and frozen at −80° C. until further use.
Sirtuin modulating compounds that activated SIRT1 were identified using the assay described above and are shown below in Table 1. The EC1.5 values represent the concentration of test compounds that result in 150% activation of SIRT1. The EC1.5 values for the activating compounds are represented by A (EC1.5<1.0 uM), B (EC1.5 1-25 uM), C (EC1.5>25 uM). The percent maximum fold activation is represented by A (Fold activation >200%) or B (Fold Activation <200%). “NT” indicates the compound was not tested in a particular assay.
For `Cc1cc(C)nc(NC(=O)c2cccc3ccc(-c4cccc(C(F)(F)F)c4)nc23)c1` [Compound 53], the “% Fold Act. (percent maximum fold activation)” value is “A (Fold activation >200%)” and the “EC1.5 (concentration of test compound that results in 150% activation of SIRT1)” value is recorded as “A (EC1.5<1.0 uM)”. The like results for `O=C(Nc1cccc2ccc(-c3cccc(C(F)(F)F)c3)nc12)c1cc[nH]n1` [Compound 224] were, in that order, “A (Fold activation >200%)” and “A (EC1.5<1.0 uM)”. The like results for `O=C(Nc1cccc2ccc(-c3ccc(O)cc3)nc12)c1cscn1` [Compound 186] were, in that order, “A (Fold activation >200%)” and “B (EC1.5 1-25 uM)”. As to `O=C(Nc1ncnc2ccc(-c3cccc(C(F)(F)F)c3)nc12)c1cccc(C(F)(F)F)c1` [Compound 258], the “EC1.5 (concentration of test compound that results in 150% activation of SIRT1)” value is recorded as “C (EC1.5>25 uM)”.

As to `O=C(NC1CCCC1)c1cccc2ccc(-c3cccc(C(F)(F)F)c3)nc12` [Compound 40], the “EC1.5 (concentration of test compound that results in 150% activation of SIRT1)” value was “C (EC1.5>25 uM)”. For the compound `O=C(NCc1cccnc1)c1cccc2ccc(-c3cccc(OC4CCNCC4)c3)nc12` [Compound 95], the “% Fold Act. (percent maximum fold activation)” value is given as “A (Fold activation >200%)” and the “EC1.5 (concentration of test compound that results in 150% activation of SIRT1)” value is reported as “B (EC1.5 1-25 uM)”.

Take `O=C(Nc1nccs1)c1cccc2ccc(-c3ccccc3)nc12` [Compound 12]: the “% Fold Act. (percent maximum fold activation)” value was “A (Fold activation >200%)” and the “EC1.5 (concentration of test compound that results in 150% activation of SIRT1)” value is recorded as “A (EC1.5<1.0 uM)”. The like results for `O=C(Nc1ccncn1)c1cccc2ncc(-c3cccc(C(F)(F)F)c3)nc12` [Compound 130] were, in that order, “B (Fold Activation <200%)” and “A (EC1.5<1.0 uM)”. The like results for `Cc1nnc(NC(=O)c2cccc3ccc(-c4cccc(N5CCOCC5)c4)nc23)o1` [Compound 276] were, in that order, “A (Fold activation >200%)” and “A (EC1.5<1.0 uM)”. The like results for `O=C(Nc1ccc(CN2CCCC2)nc1)c1cccc2ccc(-c3cccc(C(F)(F)F)c3)nc12` [Compound 292] were, in that order, “A (Fold activation >200%)” and “A (EC1.5<1.0 uM)”. With `Fc1cc(-c2ccc3cccc(NCc4cccnc4)c3n2)cc(C(F)(F)F)c1` [Compound 168], the “EC1.5 (concentration of test compound that results in 150% activation of SIRT1)” value was “C (EC1.5>25 uM)”. As for `Cc1cc(NC(=O)c2cccc3ccc(-c4cccc(N5CCOCC5)c4)nc23)sn1` [Compound 253], the “% Fold Act. (percent maximum fold activation)” value is on record as “A (Fold activation >200%)” and the “EC1.5 (concentration of test compound that results in 150% activation of SIRT1)” value is “A (EC1.5<1.0 uM)”. On to `O=C(Nc1cccnc1)c1cccc2ccc(-c3cccc(C(F)F)c3)nc12` [Compound 260], for which the “% Fold Act. (percent maximum fold activation)” value is “A (Fold activation >200%)” and the “EC1.5 (concentration of test compound that results in 150% activation of SIRT1)” value is given as “A (EC1.5<1.0 uM)”.

For `O=C(Nc1ccc(Cl)cn1)c1cccc2ccc(-c3cccnc3)nc12` [Compound 266], the “EC1.5 (concentration of test compound that results in 150% activation of SIRT1)” value is on record as “C (EC1.5>25 uM)”. For `O=C(Nc1nccs1)c1cccc2ccc(-c3ccnc(N4CCC4)c3)nc12` [Compound 179], the “% Fold Act. (percent maximum fold activation)” value is “A (Fold activation >200%)” and the “EC1.5 (concentration of test compound that results in 150% activation of SIRT1)” value is “A (EC1.5<1.0 uM)”. The matching figures for `Cc1cncc(-c2ccc3cccc(C(=O)Nc4cccc(CN5CCOCC5)c4)c3n2)c1` [Compound 243]: “A (Fold activation >200%)” and “A (EC1.5<1.0 uM)”. The matching figures for `Cc1nc(NC(=O)c2cccc3ccc(-c4cccnc4)nc23)sc1C` [Compound 226]: “A (Fold activation >200%)” and “B (EC1.5 1-25 uM)”.

For `O=C(Nc1ccccn1)c1cccc2ccc(-c3cccnc3)nc12` [Compound 182], the “% Fold Act. (percent maximum fold activation)” value is listed as “B (Fold Activation <200%)” and the “EC1.5 (concentration of test compound that results in 150% activation of SIRT1)” value is on record as “A (EC1.5<1.0 uM)”. For the compound `c1cncc(CNc2cccc3ccc(-c4cccnc4)nc23)c1` [Compound 145], the “EC1.5 (concentration of test compound that results in 150% activation of SIRT1)” value was “C (EC1.5>25 uM)”. Same read-out and setting: to `O=C(Nc1ccncn1)c1cccc2ccc(-c3cccnc3)nc12` [Compound 208] belongs “C (EC1.5>25 uM)”. Turning to `Cc1cccc(NC(=O)c2cccc3ccc(-c4cccnc4)nc23)n1` [Compound 249], the “% Fold Act. (percent maximum fold activation)” value was “A (Fold activation >200%)” and the “EC1.5 (concentration of test compound that results in 150% activation of SIRT1)” value is listed as “B (EC1.5 1-25 uM)”.

For `O=C(Nc1cccc(OCC(O)CO)c1)c1cccc2ccc(-c3cccc(C(F)(F)F)c3)nc12` (stereo not drawn) [Compound 151], the “% Fold Act. (percent maximum fold activation)” value is listed as “A (Fold activation >200%)” and the “EC1.5 (concentration of test compound that results in 150% activation of SIRT1)” value is reported as “A (EC1.5<1.0 uM)”.

With `O=C(Nc1cccc2ccc(-c3ccc(F)c(C(F)(F)F)c3)nc12)c1cnccn1` [Compound 157], the “EC1.5 (concentration of test compound that results in 150% activation of SIRT1)” value is recorded as “C (EC1.5>25 uM)”. `O=C(Nc1cccc2ccc(-c3ccc4c(c3)OCO4)nc12)c1cscn1` [Compound 107]: the “% Fold Act. (percent maximum fold activation)” value was “B (Fold Activation <200%)” and the “EC1.5 (concentration of test compound that results in 150% activation of SIRT1)” value is “A (EC1.5<1.0 uM)”. The matching figures for `CS(=O)(=O)c1cccc(-c2ccc3cccc(NC(=O)c4cscn4)c3n2)c1` [Compound 81]: “A (Fold activation >200%)” and “A (EC1.5<1.0 uM)”. Take `O=C(Nc1cccc2ccc(-c3cccc(OC(F)(F)F)c3)nc12)c1ccc(F)cc1` [Compound 22]: the “EC1.5 (concentration of test compound that results in 150% activation of SIRT1)” value is given as “C (EC1.5>25 uM)”.

On to `O=C(Nc1ccncc1)c1cccc2ccc(-c3cccnc3)nc12` [Compound 237], for which the “EC1.5 (concentration of test compound that results in 150% activation of SIRT1)” value is reported as “C (EC1.5>25 uM)”. Still for that read-out and setting: the value for `Cc1noc(C)c1NC(=O)c1cccc2ccc(-c3cccc(C(F)(F)F)c3)nc12` [Compound 50] was “C (EC1.5>25 uM)”. In the case of `Cn1cnc(C(=O)Nc2cccc3ccc(-c4cccnc4)nc23)c1` [Compound 294], the “% Fold Act. (percent maximum fold activation)” value is “A (Fold activation >200%)” and the “EC1.5 (concentration of test compound that results in 150% activation of SIRT1)” value was “B (EC1.5 1-25 uM)”.
